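Cells were grown in 96-well plates and exposed to each compound for 48 hours at five concentrations; endpoints were interpolated linearly between bracketing concentrations, or set to the highest concentration if not reached. GI50: concentration for 50% inhibition of growth. Definition used: TGI = concentration required for complete inhibition of growth.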
Columns and labels:
Assay in all cases: inhibition of tumour cell growth, NCI panel, 48 h
HL-60(TB) leukemia = test system: HL-60(TB) leukemia
NCI-H226 lung = test system: NCI-H226 lung
LOX IMVI melanoma = test system: LOX IMVI melanoma
DU-145 prostate = test system: DU-145 prostate
T-47D breast = test system: T-47D breast
SNB-75 CNS = test system: SNB-75 CNS
TK-10 renal = test system: TK-10 renal
HCC-2998 colon = test system: HCC-2998 colon
HS 578T breast = test system: HS 578T breast
UACC-257 melanoma = test system: UACC-257 melanoma
CAKI-1 renal = test system: CAKI-1 renal
ACHN renal = test system: ACHN renal
NCI-H460 lung = test system: NCI-H460 lung
786-0 renal = test system: 786-0 renal
OVCAR-4 ovarian = test system: OVCAR-4 ovarian
A549 NSCLC = test system: A549 NSCLC
UO-31 renal = test system: UO-31 renal
SK-MEL-2 melanoma = test system: SK-MEL-2 melanoma
NCI-H23 lung = test system: NCI-H23 lung
MDA-MB-435 = test system: MDA-MB-435
A498 renal = test system: A498 renal
HCT-116 colon = test system: HCT-116 colon
SF-295 CNS = test system: SF-295 CNS
HOP-62 NSCLC = test system: HOP-62 NSCLC
MDA-MB-231 breast = test system: MDA-MB-231 breast
HCT-15 colon = test system: HCT-15 colon
EKVX NSCLC = test system: EKVX NSCLC
RPMI-8226 leukemia = test system: RPMI-8226 leukemia
SK-OV-3 ovarian = test system: SK-OV-3 ovarian
NCI/ADR-RES ovarian = test system: NCI/ADR-RES ovarian
HT29 colon = test system: HT29 colon
CCRF-CEM leukemia = test system: CCRF-CEM leukemia
SF-539 CNS = test system: SF-539 CNS
SW-620 colon = test system: SW-620 colon
RXF 393 renal = test system: RXF 393 renal
SR leukemia = test system: SR leukemia
U251 CNS = test system: U251 CNS
BT-549 breast = test system: BT-549 breast
HOP-92 NSCLC = test system: HOP-92 NSCLC
IGROV1 ovarian = test system: IGROV1 ovarian
K-562 leukemia = test system: K-562 leukemia
OVCAR-5 ovarian = test system: OVCAR-5 ovarian
OVCAR-3 ovarian = test system: OVCAR-3 ovarian
SK-MEL-28 melanoma = test system: SK-MEL-28 melanoma
UACC-62 melanoma = test system: UACC-62 melanoma
PC-3 prostate = test system: PC-3 prostate
MCF7 breast = test system: MCF7 breast
SF-268 CNS = test system: SF-268 CNS
M14 melanoma = test system: M14 melanoma
NCI-H522 lung = test system: NCI-H522 lung
SNB-19 CNS = test system: SNB-19 CNS
MALME-3M melanoma = test system: MALME-3M melanoma
COLO 205 colon = test system: COLO 205 colon
MOLT-4 leukemia = test system: MOLT-4 leukemia
KM12 colon = test system: KM12 colon
SN12C renal = test system: SN12C renal
OVCAR-8 ovarian = test system: OVCAR-8 ovarian
SK-MEL-5 melanoma = test system: SK-MEL-5 melanoma

O=C(/C=C/c1cc(Cl)ccc1Cl)Nc1ncc(Cc2ccc(Cl)cc2)s1
GI50 (HL-60(TB) leukemia): 28.2 nM
TGI (HL-60(TB) leukemia): 256 nM
GI50 (NCI-H226 lung): 310 nM
TGI (NCI-H226 lung): 12000 nM
GI50 (LOX IMVI melanoma): 101 nM
TGI (LOX IMVI melanoma): 11300 nM
GI50 (DU-145 prostate): 300 nM
TGI (DU-145 prostate): 15900 nM
GI50 (T-47D breast): 14100 nM
TGI (T-47D breast): > 100000 nM
GI50 (SNB-75 CNS): 39.1 nM
TGI (SNB-75 CNS): 2470 nM
GI50 (TK-10 renal): 1300 nM
TGI (TK-10 renal): 11100 nM
GI50 (HCC-2998 colon): 209 nM
TGI (HCC-2998 colon): 10700 nM
GI50 (HS 578T breast): 52.4 nM
TGI (HS 578T breast): 6180 nM
GI50 (UACC-257 melanoma): 226 nM
TGI (UACC-257 melanoma): > 46900 nM
GI50 (CAKI-1 renal): 61.8 nM
TGI (CAKI-1 renal): 2170 nM
GI50 (ACHN renal): 128 nM
TGI (ACHN renal): 5290 nM
GI50 (NCI-H460 lung): 64 nM
TGI (NCI-H460 lung): 1510 nM
GI50 (786-0 renal): 112 nM
TGI (786-0 renal): 3240 nM
GI50 (OVCAR-4 ovarian): 1590 nM
TGI (OVCAR-4 ovarian): 10800 nM
GI50 (A549 NSCLC): 99.2 nM
TGI (A549 NSCLC): 13000 nM
GI50 (UO-31 renal): 142 nM
TGI (UO-31 renal): 7360 nM
GI50 (SK-MEL-2 melanoma): 144 nM
TGI (SK-MEL-2 melanoma): 4520 nM
GI50 (NCI-H23 lung): 67.3 nM
TGI (NCI-H23 lung): 11000 nM
GI50 (MDA-MB-435): 19.2 nM
TGI (MDA-MB-435): 41.4 nM
GI50 (A498 renal): 31.6 nM
TGI (A498 renal): 235 nM
GI50 (HCT-116 colon): 42 nM
TGI (HCT-116 colon): 5850 nM
GI50 (SF-295 CNS): 38.2 nM
TGI (SF-295 CNS): 5130 nM
GI50 (HOP-62 NSCLC): 80.3 nM
TGI (HOP-62 NSCLC): 6030 nM
GI50 (MDA-MB-231 breast): 179 nM
TGI (MDA-MB-231 breast): 9530 nM
GI50 (HCT-15 colon): 44.8 nM
TGI (HCT-15 colon): > 37900 nM
GI50 (EKVX NSCLC): 158 nM
TGI (EKVX NSCLC): > 72900 nM
GI50 (RPMI-8226 leukemia): 67.4 nM
TGI (RPMI-8226 leukemia): 16500 nM
GI50 (SK-OV-3 ovarian): 78.7 nM
TGI (SK-OV-3 ovarian): 17000 nM
GI50 (NCI/ADR-RES ovarian): 42.9 nM
TGI (NCI/ADR-RES ovarian): 2280 nM
GI50 (HT29 colon): 86.8 nM
TGI (HT29 colon): 1210 nM
GI50 (CCRF-CEM leukemia): 37.6 nM
TGI (CCRF-CEM leukemia): > 100000 nM
GI50 (SF-539 CNS): 32.8 nM
TGI (SF-539 CNS): 202 nM
GI50 (SW-620 colon): 45.4 nM
TGI (SW-620 colon): > 100000 nM
GI50 (RXF 393 renal): 27.6 nM
TGI (RXF 393 renal): 306 nM
GI50 (SR leukemia): 32.4 nM
TGI (SR leukemia): > 100000 nM
GI50 (U251 CNS): 39.5 nM
TGI (U251 CNS): 3880 nM
GI50 (BT-549 breast): 57.4 nM
TGI (BT-549 breast): 379 nM
GI50 (HOP-92 NSCLC): 715 nM
TGI (HOP-92 NSCLC): 5870 nM
GI50 (IGROV1 ovarian): 165 nM
TGI (IGROV1 ovarian): 16300 nM
GI50 (K-562 leukemia): 35.2 nM
TGI (K-562 leukemia): > 100000 nM
GI50 (OVCAR-5 ovarian): 197 nM
TGI (OVCAR-5 ovarian): 13800 nM
GI50 (OVCAR-3 ovarian): 113 nM
TGI (OVCAR-3 ovarian): 1280 nM
GI50 (SK-MEL-28 melanoma): 1980 nM
TGI (SK-MEL-28 melanoma): 53400 nM
GI50 (UACC-62 melanoma): 50.7 nM
TGI (UACC-62 melanoma): 18000 nM
GI50 (PC-3 prostate): 105 nM
TGI (PC-3 prostate): > 53700 nM
GI50 (MCF7 breast): 83.3 nM
TGI (MCF7 breast): > 38800 nM
GI50 (SF-268 CNS): 1170 nM
TGI (SF-268 CNS): 52900 nM
GI50 (M14 melanoma): 40.5 nM
TGI (M14 melanoma): 1490 nM
GI50 (NCI-H522 lung): 33.3 nM
TGI (NCI-H522 lung): 155 nM
GI50 (SNB-19 CNS): 70.2 nM
TGI (SNB-19 CNS): 31400 nM
GI50 (MALME-3M melanoma): 866 nM
TGI (MALME-3M melanoma): 43300 nM
GI50 (COLO 205 colon): 82.3 nM
TGI (COLO 205 colon): 378 nM
GI50 (MOLT-4 leukemia): 122 nM
TGI (MOLT-4 leukemia): > 100000 nM
GI50 (KM12 colon): 53.5 nM
TGI (KM12 colon): > 28100 nM
GI50 (SN12C renal): 150 nM
TGI (SN12C renal): 11700 nM
GI50 (OVCAR-8 ovarian): 69.5 nM
TGI (OVCAR-8 ovarian): 1840 nM
GI50 (SK-MEL-5 melanoma): 299 nM
TGI (SK-MEL-5 melanoma): 5190 nM
